ChEMBL document CHEMBL3272271, “Folate antagonists. 13. 2,4-Diamino-6-](alpha,alpha,alpha-trifluoro-m-tolyl)thio]quinazoline and related 2,4-diamino-6-[(phenyl- and naphthyl)thio]quinazolines, a unique class of antimetabolites with extraordinary antimalarial and antibacterial effects” (J Med Chem, 1978)
In brackets after ≈: the same amount, converted by molar mass. Activity calls are given as the source filed them. The rule behind the calls is not given here.

Tests used:
Staphylococcus aureus [1] = assay: Antibacterial activity against drug-resistant Staphylococcus aureus S18713 by gradient plate test; type: functional
Plasmodium berghei [2] = assay: Antimalarial activity against Plasmodium berghei infected in mouse assessed as disease cure from parasite infection at 320 mg/kg, sc administered 72 hrs after infection; type: functional, organism-based; parameters: dose 320 mg/kg
Plasmodium berghei [3] = assay: Antimalarial activity against Plasmodium berghei infected in mouse assessed as increase in mean survival days of host at 20 mg/kg, sc administered 72 hrs after infection relative to control; type: functional; conditions: route subcutaneous
Plasmodium berghei [4] = assay: Antimalarial activity against Plasmodium berghei infected in mouse assessed as increase in mean survival days of host at 5 mg/kg, sc administered 72 hrs after infection relative to control; type: functional; conditions: route subcutaneous
Plasmodium berghei [5] = assay: Antimalarial activity against Plasmodium berghei infected in mouse assessed as increase in mean survival days of host at 320 mg/kg, sc administered 72 hrs after infection relative to control; type: functional; conditions: route subcutaneous
Plasmodium gallinaceum [6] = assay: Antimalarial activity against trophozoite-induced Plasmodium gallinaceum infected in white leghorn chicken assessed as increase in mean survival days of host at 80 mg/kg, sc administered 72 hrs after infection relative to control; type: functional; conditions: route subcutaneous
Staphylococcus aureus [7] = assay: Antibacterial activity against Staphylococcus aureus UC-96 by gradient plate test; type: functional
Plasmodium gallinaceum [8] = assay: Antimalarial activity against trophozoite-induced Plasmodium gallinaceum infected in white leghorn chicken assessed as increase in mean survival days of host at 10 mg/kg, sc administered 72 hrs after infection relative to control; type: functional; conditions: route subcutaneous
Plasmodium berghei [9] = assay: Antimalarial activity against Plasmodium berghei infected in mouse assessed as disease cure from parasite infection at 160 mg/kg, sc administered 72 hrs after infection; type: functional, organism-based; parameters: dose 160 mg/kg
Enterococcus faecalis = assay: Antibacterial activity against Streptococcus faecalis MGH-2 by gradient plate test; type: functional
Plasmodium gallinaceum [10] = assay: Antimalarial activity against trophozoite-induced Plasmodium gallinaceum infected in white leghorn chicken assessed as increase in mean survival days of host at 320 mg/kg, sc administered 72 hrs after infection relative to control; type: functional; conditions: route subcutaneous
Plasmodium gallinaceum [11] = assay: Antimalarial activity against trophozoite-induced Plasmodium gallinaceum infected in white leghorn chicken assessed as increase in mean survival days of host at 160 mg/kg, sc administered 72 hrs after infection relative to control; type: functional; conditions: route subcutaneous
Shigella sonnei = assay: Antibacterial activity against Shigella sonnei C-10 by gradient plate test; type: functional
Plasmodium berghei [12] = assay: Antimalarial activity against Plasmodium berghei infected in mouse assessed as increase in mean survival days of host at 40 mg/kg, sc administered 72 hrs after infection relative to control; type: functional; conditions: route subcutaneous
Escherichia coli = assay: Antibacterial activity against Escherichia coli Vogel by gradient plate test; type: functional
Pseudomonas aeruginosa = assay: Antibacterial activity against Pseudomonas aeruginosa 28 by gradient plate test; type: functional
Plasmodium gallinaceum [13] = assay: Antimalarial activity against trophozoite-induced Plasmodium gallinaceum infected in white leghorn chicken assessed as increase in mean survival days of host at 40 mg/kg, sc administered 72 hrs after infection relative to control; type: functional; conditions: route subcutaneous
Plasmodium berghei [14] = assay: Antimalarial activity against Plasmodium berghei infected in mouse assessed as increase in mean survival days of host at 10 mg/kg, sc administered 72 hrs after infection relative to control; type: functional; conditions: route subcutaneous
Plasmodium berghei [15] = assay: Antimalarial activity against Plasmodium berghei infected in mouse assessed as increase in mean survival days of host at 80 mg/kg, sc administered 72 hrs after infection relative to control; type: functional; conditions: route subcutaneous
Plasmodium gallinaceum [16] = assay: Antimalarial activity against trophozoite-induced Plasmodium gallinaceum infected in white leghorn chicken assessed as increase in mean survival days of host at 20 mg/kg, sc administered 72 hrs after infection relative to control; type: functional; conditions: route subcutaneous
Plasmodium berghei [17] = assay: Antimalarial activity against Plasmodium berghei infected in mouse assessed as increase in mean survival days of host at 160 mg/kg, sc administered 72 hrs after infection relative to control; type: functional; conditions: route subcutaneous
Plasmodium gallinaceum [18] = assay: Antimalarial activity against trophozoite-induced Plasmodium gallinaceum infected in white leghorn chicken assessed as increase in mean survival days of host at 2.5 mg/kg, sc administered 72 hrs after infection relative to control; type: functional; conditions: route subcutaneous
Plasmodium berghei [19] = assay: Antimalarial activity against Plasmodium berghei infected in mouse assessed as disease cure from parasite infection at 640 mg/kg, sc administered 72 hrs after infection; type: functional, organism-based; parameters: dose 640 mg/kg
[20] = system: Mycobacterium tuberculosis; assay: Antibacterial activity against Mycobacterium tuberculosis H37Ra by gradient plate test; type: functional
Plasmodium berghei [21] = assay: Antimalarial activity against Plasmodium berghei infected in mouse assessed as disease cure from parasite infection at 80 mg/kg, sc administered 72 hrs after infection; type: functional, organism-based; parameters: dose 80 mg/kg
Plasmodium berghei [22] = assay: Antimalarial activity against Plasmodium berghei infected in mouse assessed as increase in mean survival days of host at 1.25 mg/kg, sc administered 72 hrs after infection relative to control; type: functional; conditions: route subcutaneous
Plasmodium berghei [23] = assay: Antimalarial activity against Plasmodium berghei infected in mouse assessed as increase in mean survival days of host at 2.5 mg/kg, sc administered 72 hrs after infection relative to control; type: functional; conditions: route subcutaneous
Plasmodium gallinaceum [24] = assay: Antimalarial activity against trophozoite-induced Plasmodium gallinaceum infected in white leghorn chicken assessed as increase in mean survival days of host at 1.25 mg/kg, sc administered 72 hrs after infection relative to control; type: functional; conditions: route subcutaneous
Plasmodium gallinaceum [25] = assay: Antimalarial activity against trophozoite-induced Plasmodium gallinaceum infected in white leghorn chicken assessed as increase in mean survival days of host at 5 mg/kg, sc administered 72 hrs after infection relative to control; type: functional; conditions: route subcutaneous
Plasmodium gallinaceum [26] = assay: Antimalarial activity against trophozoite-induced Plasmodium gallinaceum infected in white leghorn chicken assessed as increase in mean survival days of host at 0.63 mg/kg, sc administered 72 hrs after infection relative to control; type: functional; conditions: route subcutaneous
Plasmodium gallinaceum [27] = assay: Antimalarial activity against sporozoite-induced Plasmodium gallinaceum infected in white leghorn chicken assessed as disease cure from parasite infection at 240 mg/kg, sc administered 72 hrs after infection; type: functional, organism-based; parameters: dose 240 mg/kg
Plasmodium gallinaceum [28] = assay: Antimalarial activity against sporozoite-induced Plasmodium gallinaceum infected in white leghorn chicken assessed as disease cure from parasite infection at 30 mg/kg, sc administered 72 hrs after infection; type: functional, organism-based; parameters: dose 30 mg/kg
Plasmodium gallinaceum [29] = assay: Antimalarial activity against sporozoite-induced Plasmodium gallinaceum infected in white leghorn chicken assessed as disease cure from parasite infection at 15 mg/kg, sc administered 72 hrs after infection; type: functional, organism-based; parameters: dose 15 mg/kg
Plasmodium gallinaceum [30] = assay: Antimalarial activity against sporozoite-induced Plasmodium gallinaceum infected in white leghorn chicken assessed as disease cure from parasite infection at 120 mg/kg, sc administered 72 hrs after infection; type: functional, organism-based; parameters: dose 120 mg/kg
Plasmodium gallinaceum [31] = assay: Antimalarial activity against sporozoite-induced Plasmodium gallinaceum infected in white leghorn chicken assessed as disease cure from parasite infection at 480 mg/kg, sc administered 72 hrs after infection; type: functional, organism-based; parameters: dose 480 mg/kg
Plasmodium gallinaceum [32] = assay: Antimalarial activity against sporozoite-induced Plasmodium gallinaceum infected in white leghorn chicken assessed as disease cure from parasite infection at 60 mg/kg, sc administered 72 hrs after infection; type: functional, organism-based; parameters: dose 60 mg/kg
Plasmodium gallinaceum [33] = assay: Antimalarial activity against sporozoite-induced Plasmodium gallinaceum infected in white leghorn chicken assessed as increase in mean survival days of host at 15 mg/kg, sc administered 72 hrs after infection relative to control; type: functional; conditions: route subcutaneous
Plasmodium berghei [34] = assay: Antimalarial activity against trophozoite-induced Plasmodium berghei infected in mouse assessed as daily dose required to suppression of 90% parasite infection administered with diet for 6 days; type: functional
Plasmodium berghei [35] = assay: Ratio of quinine hydrochloride SD90 to compound SD90 for trophozoite-induced Plasmodium berghei infected in mouse assessed as daily dose required to suppression of 90% parasite infection administered with diet for 6 days; type: functional

| Compound | MIC (Staphylococcus aureus [1]) [µg/mL] | Activity (Plasmodium berghei [2]) | MST (Plasmodium berghei [3]) [days] | MST (Plasmodium berghei [4]) [days] | MST (Plasmodium berghei [5]) [days] | MIC (Staphylococcus aureus [7]) [µg/mL] | MST (Plasmodium gallinaceum [8]) [days] | Activity (Plasmodium berghei [9]) | MIC (Enterococcus faecalis) [µg/mL] | MIC (Shigella sonnei) [µg/mL] | MST (Plasmodium berghei [12]) [days] | MIC (Escherichia coli) [µg/mL] | MIC (Pseudomonas aeruginosa) [µg/mL] | MST (Plasmodium berghei [14]) [days] | MST (Plasmodium berghei [15]) [days] | MST (Plasmodium gallinaceum [16]) [days] | MST (Plasmodium berghei [17]) [days] | Activity (Plasmodium berghei [19]) | MIC [20] [µg/mL] | Activity (Plasmodium berghei [21]) | further results |
| --- | --- | --- | --- | --- | --- | --- | --- | --- | --- | --- | --- | --- | --- | --- | --- | --- | --- | --- | --- | --- | --- |
| Nc1nc(N)c2cc(Sc3ccccc3Cl)ccc2n1 | < 0.25 | Active | 0.5 | 0.3 | 18.9 | < 0.25 | 0 | Active | < 0.25 | 2 (≈ 6.61 µM) | 0.5 | < 0.25 | > 25 | 0.3 | 8.1 | 6 | 10.9 | – | – | – | MST (Plasmodium gallinaceum [6]): 10.2 days; MST (Plasmodium gallinaceum [10]): 20.8 days; MST (Plasmodium gallinaceum [11]): 19.8 days; MST (Plasmodium gallinaceum [13]): 7.6 days |
| Nc1nc(N)c2cc(Sc3cccc4ccccc34)ccc2n1 | 5 (≈ 15.7 µM) | Active | 10.7 | 1.9 | – | 2.5 (≈ 7.85 µM) | 12.4 | Active | 10 (≈ 31.4 µM) | 20 (≈ 62.8 µM) | 14.5 | 15 (≈ 47.1 µM) | > 25 | 7.9 | 18.4 | 17.4 | – | Active | > 25 | Active | MST (Plasmodium gallinaceum [18]): 9 days; MST (Plasmodium berghei [22]): 0.5 days; MST (Plasmodium berghei [23]): 1.1 days; MST (Plasmodium gallinaceum [24]): 7.2 days; MST (Plasmodium gallinaceum [25]): 11.8 days; MST (Plasmodium gallinaceum [26]): 2.2 days |
| Nc1nc(N)c2cc(Sc3ccc(O)cc3)ccc2n1 | < 0.25 | Active | 6.3 | – | – | < 0.25 | – | Active | < 0.25 | 15 (≈ 52.8 µM) | 11.9 | 2.5 (≈ 8.79 µM) | 20 (≈ 70.3 µM) | 2.9 | 10.9 | – | 13.6 | Active | > 25 | Active | Activity (Plasmodium gallinaceum [27]): Active; Activity (Plasmodium gallinaceum [28]): Active; Activity (Plasmodium gallinaceum [29]): Active; Activity (Plasmodium gallinaceum [30]): Active; Activity (Plasmodium gallinaceum [31]): Active; Activity (Plasmodium gallinaceum [32]): Active; MST (Plasmodium gallinaceum [33]): 4.7 days |
| CC(C)(C)c1ccc(Sc2ccc3nc(N)nc(N)c3c2)cc1 | < 0.25 | Active | 1 | – | 17.9 | < 0.25 | – | – | < 0.25 | 15 (≈ 46.2 µM) | 2.6 | 10 (≈ 30.8 µM) | > 25 | 1.1 | 6 | – | 7.8 | Active | – | – | SD90 (Plasmodium berghei [34]): 18 mg/kg/day; Ratio (Plasmodium berghei [35]): 4.1 |
| Nc1nc(N)c2cc(Sc3cccc(Cl)c3)ccc2n1 | 5 (≈ 16.5 µM) | Active | 0.5 | – | 20.9 | 2.5 (≈ 8.26 µM) | – | – | 10 (≈ 33 µM) | 20 (≈ 66.1 µM) | 3.5 | 10 (≈ 33 µM) | > 25 | 0.5 | 4.3 | – | 4.9 | Active | > 25 | – | – |
| COc1cccc(Sc2ccc3nc(N)nc(N)c3c2)c1 | < 0.25 | Active | 1.5 | – | 12.2 | < 0.25 | – | – | < 0.25 | 1 (≈ 3.35 µM) | 5.7 | < 0.25 | > 25 | 0.3 | 8.3 | – | 11.7 | Active | – | – | – |
